Source: ChEMBL document CHEMBL3526092 (Drug Metab Dispos, 2012)

Key:
CYP3A [1] = target: T1, CYP3A (Homo sapiens, UniProt P08684+P20815+P24462+Q9HB55); test: Inhibition of CYP3A-mediated 1'-OH midazolam formation in human liver microsomes after 7.5 mins by LC-MS method; format: ADME; conditions: probe midazolam (1'-OH midazolam formation)
CYP3A4 [2] = target: T2, CYP3A4 (Homo sapiens, UniProt P08684); test: Inhibition of human CYP3A4 expressed in supersomes assessed inhibition of 1'-OH midazolam formation preincubated at 2 uM followed by addition of 20-fold diluted buffer with 20 uM MDZ by LC-MS method in presence of NADPH; format: ADME; conditions: supersomes expressing human CYP3A4, probe midazolam (20 uM; 1'-OH midazolam formation)
CYP3A5 [3] = target: T3, CYP3A5 (Homo sapiens, UniProt P20815); test: Ratio of IC50 for human CYP3A5 expressed in supersomes by coincubation study to IC50 for human CYP3A5 expressed in supersomes by preincubation study; conditions: supersomes expressing human CYP3A5, read-out: Ratio IC50
Cytochrome P450 3A5 [4] = target: T4, Cytochrome P450 3A5 (Homo sapiens, UniProt P20815); test: Inhibition of human CYP3A5 expressed in supersomes assessed inhibition of 1'-OH midazolam formation preincubated with compound before substrate addition by LC-MS method; format: ADME
CYP3A [5] = target: T1, CYP3A; test: Competitive inhibition of CYP3A in human liver microsomes; format: ADME
CYP3A5 [6] = target: T3, CYP3A5; test: Inhibition of human CYP3A5 expressed in supersomes assessed inhibition of 1'-OH midazolam formation preincubated with compound for 2.5 to 30 mins followed by addition of 20-fold diluted buffer with 20 uM MDZ by LC-MS method; format: ADME; conditions: supersomes expressing human CYP3A5, probe midazolam (20 uM; 1'-OH midazolam formation)
CYP3A4 [7] = target: T2, CYP3A4; test: Inhibition of human CYP3A4 expressed in supersomes assessed inhibition of 1'-OH midazolam formation preincubated with compound for 2.5 to 30 mins followed by addition of 20-fold diluted buffer with 20 uM MDZ by LC-MS method; format: ADME; conditions: supersomes expressing human CYP3A4, probe midazolam (20 uM; 1'-OH midazolam formation)
Cytochrome P450 3A4 [8] = target: T5, Cytochrome P450 3A4 (Homo sapiens, UniProt P08684); test: Inhibition of human CYP3A4 expressed in supersomes assessed inhibition of 1'-OH midazolam formation preincubated with compound before substrate addition by LC-MS method; format: ADME
CYP3A4 [9] = target: T2, CYP3A4; test: Ratio of IC50 for human CYP3A4 expressed in supersomes by coincubation study to IC50 for human CYP3A4 expressed in supersomes by preincubation study; conditions: supersomes expressing human CYP3A4, read-out: Ratio IC50
Cytochrome P450 3A4 [10] = target: T5, Cytochrome P450 3A4; test: Reversible competitive inhibition of human CYP3A4-mediated 1'-OH midazolam formation in human liver microsomes after 7.5 mins by nonlinear regression study; format: ADME
CYP3A [11] = target: T1, CYP3A; test: Inhibition of CYP3A-mediated 1'-OH midazolam formation in human liver microsomes preincubated for 15 mins before substrate addition by LC-MS method; format: ADME; conditions: probe midazolam (1'-OH midazolam formation)
Cytochrome P450 3A5 [12] = target: T4, Cytochrome P450 3A5; test: Reversible competitive inhibition of human CYP3A5-mediated 1'-OH midazolam formation in human liver microsomes after 7.5 mins by nonlinear regression study; format: ADME
CYP3A [13] = target: T1, CYP3A; test: Reversible competitive inhibition of CYP3A-mediated 1'-OH midazolam formation in human liver microsomes after 7.5 mins by nonlinear regression study; format: ADME; conditions: probe midazolam (1'-OH midazolam formation)
Cytochrome P450 3A4 [14] = target: T5, Cytochrome P450 3A4; test: Inhibition of human CYP3A4 expressed in supersomes assessed inhibition of 1'-OH midazolam formation by LC-MS method; format: ADME
Cytochrome P450 3A5 [15] = target: T4, Cytochrome P450 3A5; test: Inhibition of human CYP3A5 expressed in supersomes assessed inhibition of 1'-OH midazolam formation by LC-MS method; format: ADME
CYP3A5 [16] = target: T3, CYP3A5; test: Inhibition of human CYP3A5 expressed in supersomes assessed inhibition of 1'-OH midazolam formation preincubated at 2 uM followed by addition of 20-fold diluted buffer with 20 uM MDZ by LC-MS method in presence of NADPH; format: ADME; conditions: supersomes expressing human CYP3A5, probe midazolam (20 uM; 1'-OH midazolam formation)
[17] = human, recombinant enzyme, TDE = time-dependent effect

T2 sequence (P08684 whole entry): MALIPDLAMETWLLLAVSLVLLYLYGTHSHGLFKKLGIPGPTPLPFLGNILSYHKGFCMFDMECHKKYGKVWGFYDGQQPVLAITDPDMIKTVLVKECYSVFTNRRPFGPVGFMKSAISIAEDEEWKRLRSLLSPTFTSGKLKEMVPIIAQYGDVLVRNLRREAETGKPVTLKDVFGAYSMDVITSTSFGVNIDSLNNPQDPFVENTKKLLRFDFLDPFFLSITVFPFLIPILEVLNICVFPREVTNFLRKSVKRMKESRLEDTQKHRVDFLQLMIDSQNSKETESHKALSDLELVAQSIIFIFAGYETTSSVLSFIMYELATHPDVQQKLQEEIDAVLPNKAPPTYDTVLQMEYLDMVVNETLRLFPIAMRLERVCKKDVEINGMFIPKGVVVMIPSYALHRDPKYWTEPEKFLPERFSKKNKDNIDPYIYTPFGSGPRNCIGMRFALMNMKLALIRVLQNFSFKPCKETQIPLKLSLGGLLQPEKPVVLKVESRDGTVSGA
T5 sequence (P08684 whole entry): as above
T4 sequence (P20815 whole entry): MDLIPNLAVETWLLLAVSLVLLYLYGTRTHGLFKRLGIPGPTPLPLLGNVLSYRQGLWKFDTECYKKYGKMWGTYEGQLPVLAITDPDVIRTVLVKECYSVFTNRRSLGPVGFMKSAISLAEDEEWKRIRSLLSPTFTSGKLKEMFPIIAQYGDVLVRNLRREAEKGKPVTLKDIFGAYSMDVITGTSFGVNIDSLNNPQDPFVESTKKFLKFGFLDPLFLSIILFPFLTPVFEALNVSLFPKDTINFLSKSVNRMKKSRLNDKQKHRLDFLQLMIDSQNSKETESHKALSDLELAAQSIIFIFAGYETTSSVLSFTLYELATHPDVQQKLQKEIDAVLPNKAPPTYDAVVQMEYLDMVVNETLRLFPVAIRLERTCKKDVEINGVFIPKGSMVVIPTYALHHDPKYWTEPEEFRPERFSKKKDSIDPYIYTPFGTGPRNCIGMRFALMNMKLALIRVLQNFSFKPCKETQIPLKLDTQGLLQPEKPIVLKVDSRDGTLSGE
T3 sequence (P20815 whole entry): as above

C=CC[C@@H]1/C=C(\C)C[C@H](C)C[C@H](OC)[C@H]2O[C@@](O)(C(=O)C(=O)N3CCCC[C@H]3C(=O)O[C@H](/C(C)=C/[C@@H]3CC[C@@H](O)[C@H](OC)C3)[C@H](C)[C@@H](O)CC1=O)[C@H](C)C[C@@H]2OC [TACROLIMUS ANHYDROUS]
IC50 at 7.5 min (CYP3A [1]): 0.94 µM
inhibition at 2 µM (CYP3A4 [2]): 42%
IC50 shift (CYP3A5 [3]): 5
IC50 (Cytochrome P450 3A5 [4]): 0.14 µM
inhibition (INH) (Cytochrome P450 3A5 [4]; [17]): tde
Ki (CYP3A [5]): 0.36 µM
kinact (CYP3A5 [6]): 0.0035 s⁻¹
kinact (CYP3A4 [7]): 0.005 s⁻¹
IC50 (Cytochrome P450 3A4 [8]): 0.12 µM
inhibition (INH) (Cytochrome P450 3A4 [8]; [17]): tde
IC50 shift (CYP3A4 [9]): 5
Ki (Cytochrome P450 3A4 [10]): 2.66 µM
IC50 (CYP3A [11]): 0.74 µM
Ki (Cytochrome P450 3A5 [12]): 2.69 µM
Ki at 7.5 min (CYP3A [13]): 0.61 µM
IC50 (Cytochrome P450 3A4 [14]): 0.62 µM
inhibition (INH) (Cytochrome P450 3A4 [14]; [17]): tde
IC50 (Cytochrome P450 3A5 [15]): 0.63 µM
inhibition (INH) (Cytochrome P450 3A5 [15]; [17]): tde
inhibition at 2 µM (CYP3A5 [16]): 52%
